Numbers after ± are expanded uncertainties.
Experiments:
[1] = Molar enthalpy of transition or fusion; conditions: Crystal; DSC
[2] = for Normal melting temperature: DTA

COC(=O)c1ccc(N(C)C)cc1 [methyl 4-(dimethylamino)benzoate]
Conditions | Molar enthalpy of transition or fusion [kcal/mol]
[1] | 5.59 ± 0.12

vapor or sublimation pressure [kPa], [2]
Conditions | Crystal | Liquid
311.12 K, Calculated from knudsen effusion weight loss | 8.2e-05 ± 2e-05 | –
313.19 K, Calculated from knudsen effusion weight loss | 0.000104 ± 2e-05 | –
315.17 K, Calculated from knudsen effusion weight loss | 0.000131 ± 2.1e-05 | –
317.11 K, Calculated from knudsen effusion weight loss | 0.000166 ± 2.1e-05 | –
319.18 K, Calculated from knudsen effusion weight loss | 0.000211 ± 2.1e-05 | –
323.12 K, Calculated from knudsen effusion weight loss | 0.000332 ± 2.3e-05 | –
324.96 K, Closed cell (Static) method | 0.00043 ± 0.00011 | –
325.18 K, Calculated from knudsen effusion weight loss | 0.000421 ± 2.5e-05 | –
326.93 K, Closed cell (Static) method | 0.00053 ± 0.00011 | –
327.16 K, Calculated from knudsen effusion weight loss | 0.000525 ± 2.7e-05 | –
328.93 K, Closed cell (Static) method | 0.00068 ± 0.00011 | –
329.11 K, Calculated from knudsen effusion weight loss | 0.000662 ± 3.1e-05 | –
330.9 K, Closed cell (Static) method | 0.00084 ± 0.00012 | –
331.17 K, Calculated from knudsen effusion weight loss | 0.000829 ± 3.6e-05 | –
332.91 K, Closed cell (Static) method | 0.00105 ± 0.00012 | –
333.16 K, Calculated from knudsen effusion weight loss | 0.001019 ± 7.9e-05 | –
334.88 K, Closed cell (Static) method | 0.0013 ± 0.00012 | –
336.89 K, Closed cell (Static) method | 0.00161 ± 0.00013 | –
338.85 K, Closed cell (Static) method | 0.00199 ± 0.00014 | –
340.86 K, Closed cell (Static) method | 0.00246 ± 0.00015 | –
342.81 K, Closed cell (Static) method | 0.00298 ± 0.00017 | –
344.83 K, Closed cell (Static) method | 0.00365 ± 0.00019 | –
346.78 K, Closed cell (Static) method | 0.00447 ± 0.00021 | –
348.79 K, Closed cell (Static) method | 0.00542 ± 0.00024 | –
350.75 K, Closed cell (Static) method | 0.00655 ± 0.00028 | –
352.74 K, Closed cell (Static) method | 0.00799 ± 0.00034 | –
352.78 K, Closed cell (Static) method | – | 0.01105 ± 0.00045
354.73 K, Closed cell (Static) method | 0.0096 ± 0.00039 | –
354.77 K, Closed cell (Static) method | – | 0.01276 ± 0.00051
356.72 K, Closed cell (Static) method | 0.01168 ± 0.00047 | –
356.75 K, Closed cell (Static) method | – | 0.01475 ± 0.00054
358.69 K, Closed cell (Static) method | 0.01403 ± 0.00053 | –
358.73 K, Closed cell (Static) method | – | 0.01697 ± 0.00058
360.68 K, Closed cell (Static) method | 0.01658 ± 0.00057 | –
360.72 K, Closed cell (Static) method | – | 0.01953 ± 0.00062
362.67 K, Closed cell (Static) method | 0.01987 ± 0.00062 | –
362.7 K, Closed cell (Static) method | – | 0.02236 ± 0.00066
364.65 K, Closed cell (Static) method | 0.02318 ± 0.00067 | –
364.68 K, Closed cell (Static) method | – | 0.02563 ± 0.00071
366.61 K, Closed cell (Static) method | 0.02725 ± 0.00074 | –
366.67 K, Closed cell (Static) method | – | 0.02928 ± 0.00077
368.66 K, Closed cell (Static) method | 0.03255 ± 0.00082 | 0.03341 ± 0.00083
370.64 K, Closed cell (Static) method | – | 0.03797 ± 0.0009
372.62 K, Closed cell (Static) method | – | 0.04321 ± 0.00098
374.62 K, Closed cell (Static) method | – | 0.04885 ± 0.0011
376.56 K, Closed cell (Static) method | – | 0.05553 ± 0.0012
378.53 K, Closed cell (Static) method | – | 0.0627 ± 0.0013
380.52 K, Closed cell (Static) method | – | 0.07058 ± 0.0014
382.5 K, Closed cell (Static) method | – | 0.07972 ± 0.0015
384.49 K, Closed cell (Static) method | – | 0.08949 ± 0.0017
386.42 K, Closed cell (Static) method | – | 0.1006 ± 0.0019
388.46 K, Closed cell (Static) method | – | 0.1126 ± 0.0021
390.44 K, Closed cell (Static) method | – | 0.1259 ± 0.0023

Conditions | Normal melting temperature [°C]
[2], Crystal | 98.14 ± 0.39

COC(=O)c1ccc(C)cc1 [methyl 4-methylbenzoate]
Conditions | Molar enthalpy of transition or fusion [kcal/mol]
[1] | 4.83 ± 0.215

[2], Closed cell (Static) method
Conditions | vapor or sublimation pressure [kPa]
269.27 K, Crystal | 0.0004 ± 9e-05
271.21 K, Crystal | 0.00052 ± 0.0001
273.18 K, Crystal | 0.00067 ± 0.0001
275.19 K, Crystal | 0.00087 ± 0.0001
277.14 K, Crystal | 0.00112 ± 0.0001
279.16 K, Crystal | 0.00145 ± 0.00011
281.08 K, Crystal | 0.00184 ± 0.00012
283.07 K, Crystal | 0.00235 ± 0.00013
285.08 K, Crystal | 0.003 ± 0.00015
287.05 K, Crystal | 0.00377 ± 0.00018
289.04 K, Crystal | 0.00475 ± 0.00021
291.04 K, Crystal | 0.00599 ± 0.00026
293.03 K, Liquid | 0.01066 ± 0.00043
293.04 K, Crystal | 0.00745 ± 0.00031
295.02 K, Crystal | 0.00939 ± 0.00038
295.08 K, Liquid | 0.0127 ± 0.00051
297.03 K, Crystal | 0.01167 ± 0.00047
297.05 K, Liquid | 0.01498 ± 0.00054
299.02 K, Crystal | 0.01451 ± 0.00054
299.04 K, Liquid | 0.01755 ± 0.00058
300.98 K, Crystal | 0.01795 ± 0.00059
301.03 K, Liquid | 0.02057 ± 0.00063
303 K, Liquid | 0.02404 ± 0.00068
305.03 K, Liquid | 0.02784 ± 0.00074
306.98 K, Liquid | 0.03242 ± 0.00081
308.97 K, Liquid | 0.03825 ± 0.0009
310.97 K, Liquid | 0.0434 ± 0.00098
312.95 K, Liquid | 0.05065 ± 0.0011
314.97 K, Liquid | 0.05815 ± 0.0012
316.99 K, Liquid | 0.06735 ± 0.0014
318.9 K, Liquid | 0.07685 ± 0.0015
320.95 K, Liquid | 0.08945 ± 0.0017
322.94 K, Liquid | 0.1009 ± 0.0019
324.92 K, Liquid | 0.1171 ± 0.0021
326.96 K, Liquid | 0.132 ± 0.002
328.85 K, Liquid | 0.151 ± 0.0022
330.92 K, Liquid | 0.1689 ± 0.0024
332.84 K, Liquid | 0.1934 ± 0.0026
334.91 K, Liquid | 0.2162 ± 0.0028
336.82 K, Liquid | 0.2454 ± 0.003
338.88 K, Liquid | 0.2748 ± 0.0033
340.75 K, Liquid | 0.31 ± 0.0036
342.8 K, Liquid | 0.3469 ± 0.0039
344.71 K, Liquid | 0.3884 ± 0.0043
346.77 K, Liquid | 0.4353 ± 0.0047
348.75 K, Liquid | 0.484 ± 0.0051

Conditions | Normal melting temperature [°C]
[2], Crystal | 31.94 ± 0.52

Reference: the NIST ThermoML archive (doi:10.1021/je2007605)
